In assay [1] the test system is rat bladder strips. The assay can be described thus: Isolated rat bladder strips: inhibition of carbachol-evoked contraction. On the procedure:
Isolated Rat Bladder Strips
Male rats (Harlan, Sprague Dawley, 250-350 g) were sacrificed by decapitation, the bladder removed and cleaned of connective tissue. Strips of bladder were then cut from the bladder body and each was placed in an organ bath, suspended between a fixed hook and a force transducer, containing oxygenated physiological buffer (composition in mM: NaCl 118.4, KCl 4.7, KH2PO4 1.2, MgSO4 1.3, CaCl2 1.8, glucose 10.1, NaHCO3 25, gassed with 95%O2/5%CO2) and maintained at 37° C. Force generated by the bladder strips was recorded and measured using an AcqKnowledge data acquisition system (AcqKnowledge for MP100WS, Biopac Systems Inc., Goleta, Calif.).
The bladder strips were primed by stimulating them with 10 μM carbachol to evoke a contraction. The strips were then washed multiple times with fresh physiological buffer and allowed to fully relax. Following a period of recovery, the strips were again challenged with 10 μM carbachol to produce a contraction; this contractile response served as the control response. The strips were again washed multiple times and allowed to fully relax (45 minutes). Test compound or vehicle was then added to each organ bath. Following a one hour incubation period, the strips were again stimulated with 10 μM carbachol and the contractile response measured.
The percent inhibition of the carbachol response by the test compounds was calculated by comparing control and post-compound carbachol responses corrected for vehicle effects.

The subject of assay [2] is Gq signaling in Hek 293 kidney cells. The experiment in a line: [Ca2+]i measurement, carbachol-induced calcium signal in HEK 293 cells. Type of assay: cell-based, human. The procedure: • 1. HEK 293 or Clonetics primary human bladder smooth muscle cells were plated at a concentration of 7e3 cells/well in Poly-L lysine coated 96 well plates, white with clear bottoms (Costar). • 2. The plates are allowed to attach overnight at 37° C. 5%CO2. The cells were rinsed 2× with Krebs-HEPES buffer and then loaded with 4 uM Fluo4 (Molecular Probes) for 60 minutes in the same buffer containing 1% (wt/vol) Pluronic F-127 and 0.25 mM sulfinpyrazone. • 3. After loading the cells were rinsed 3× with Krebs-HEPES buffer containing 0.5% (wt/vol) BSA (Sigma Chemical) • 4. Buffer alone or buffer containing test compounds, was injected sequentially into separate wells and the fluorescence intensity monitored in a Victor2 96 well plate fluorometer (PE-Wallac). Measurements were taken at 1-s intervals using an excitation wavelength of 485 nm and emissions filter of 535 nm. • 5. Five baseline measurements were taken at 1-s intervals prior to each injection (see FIGS. 4A and 4B).
Calcium assays were run by standard protocols as described above and in Zhu et al., 1998, J. Biol Chem 273:133-142. It is known that calcium signals in response to carbachol have both a Gq and a Go/Gi signaling component. Pertussis toxin is a known inhibitor of Go/Gi signaling in cells. We asked the question if Compound I was inhibiting Gq or Go/Gi signals in Hek 293 kidney cells. […] to block the Go/I but not Gq signals. […] If however Compound I were inhibiting Gq signal specifically, then we would expect the combination of pertussis toxin (hitting Go/Gi) and Gq.

The target in assay [3] is T1, RGS7/Gq (Homo sapiens, UniProt P49802+P50148).
T1 sequence (P49802 1-469 isoform P49802-2): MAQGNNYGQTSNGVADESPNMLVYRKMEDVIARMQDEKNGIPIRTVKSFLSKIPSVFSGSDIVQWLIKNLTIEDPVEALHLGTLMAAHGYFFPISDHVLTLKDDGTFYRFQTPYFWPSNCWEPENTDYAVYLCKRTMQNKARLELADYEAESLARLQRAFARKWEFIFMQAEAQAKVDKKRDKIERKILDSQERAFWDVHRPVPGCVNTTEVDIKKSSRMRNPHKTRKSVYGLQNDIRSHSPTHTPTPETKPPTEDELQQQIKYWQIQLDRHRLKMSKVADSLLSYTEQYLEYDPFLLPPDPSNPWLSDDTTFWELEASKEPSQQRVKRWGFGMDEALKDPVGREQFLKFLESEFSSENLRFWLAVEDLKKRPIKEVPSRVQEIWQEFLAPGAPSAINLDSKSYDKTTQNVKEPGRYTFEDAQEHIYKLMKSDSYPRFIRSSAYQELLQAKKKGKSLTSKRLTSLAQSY
T1 sequence (P50148 1-359): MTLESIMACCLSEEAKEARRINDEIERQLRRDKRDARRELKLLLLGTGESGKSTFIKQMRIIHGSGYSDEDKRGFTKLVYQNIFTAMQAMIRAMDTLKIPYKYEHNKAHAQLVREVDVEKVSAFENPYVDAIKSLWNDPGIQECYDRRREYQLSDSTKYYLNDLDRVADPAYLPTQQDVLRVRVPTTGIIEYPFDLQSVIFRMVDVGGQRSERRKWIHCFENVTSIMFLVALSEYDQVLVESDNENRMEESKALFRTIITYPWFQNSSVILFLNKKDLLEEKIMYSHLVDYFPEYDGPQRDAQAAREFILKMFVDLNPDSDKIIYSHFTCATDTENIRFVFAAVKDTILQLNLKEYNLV
T1 sequence (O14775 43-395 partner limits assumed): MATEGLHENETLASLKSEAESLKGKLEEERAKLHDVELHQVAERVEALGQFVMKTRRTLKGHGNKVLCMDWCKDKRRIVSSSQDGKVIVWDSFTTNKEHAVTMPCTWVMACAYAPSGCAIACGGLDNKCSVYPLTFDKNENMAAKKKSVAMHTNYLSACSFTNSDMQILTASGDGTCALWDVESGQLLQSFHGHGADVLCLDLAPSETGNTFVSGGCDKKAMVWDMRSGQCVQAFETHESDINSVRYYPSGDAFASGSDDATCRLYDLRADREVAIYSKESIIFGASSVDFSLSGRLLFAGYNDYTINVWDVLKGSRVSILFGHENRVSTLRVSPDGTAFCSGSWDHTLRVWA
The assay can be described thus: Co-immunoprecipitation of Gq with RGS7 from transfected Hek 293 cells. Type of assay: binding. Particulars: immunoprecipitation blot. The procedure: Hek 293 cells were transfected with CMV-G alpha qHA, CMV-mycRGS-7 and CMV-Gbeta5. 48 hours later the cells were harvested and lysed. Antibody to the myc epitope was utilized to immunoprecipitate RGS-7 in the presence or absence of ALF4-. The precipitated proteins were split into two fractions and loaded onto gels and western blotted on to nitrocellulose. In FIG. 6, the left blot (1) was probed with anti-myc antibody to detect RGS-7. RGS-7 was immunoprecipitated by the anti-myc antibody in the presence and absence of ALF4-. […] A G alpha q protein band was detected to have associated with RGS-7 and precipitated in the presence of ALF4- (lanes A) but not in the absence of ALF4- (lane B). In the second experiment, RGS-7 was immuno-precipitated again with the Myc epitope to which it was fused and the presence of G alpha q was detected in the presence or absence of ALF4- or different concentrations of Compound III. […] This increase in RGS-7 affinity would be predicted to be the same for other RGS7 family members such as RGS 6,9 and 11, as they have been shown previously to have similar affinities and effects on G alpha q. In addition this assay provides a method for screening for compounds that affect the interaction of RGS proteins and G alpha q.
In FIG. 5B, Compounds I, II and III affect the affinity of Gq and RGS proteins for one another. FIG. 5B is an immunoprecipitation blot of myc tagged RGS which has been probed with an anti hemagglutinin antibody to detect a hemagglutinin tagged Gαq. […] The ability of Compounds I, II and III to increase the affinity of Gq and RGS is a novel mechanism by which one can Gαq activity and such compounds and screens for additional compounds with such activity are useful wherever one desires to antagonize g protein signaling that involves Gαq and RGS proteins. […]

Assay [4] relates to C. elegans. The experiment in a line: C. elegans compound treatment: neuromuscular and egg-laying phenotypes. On the procedure: C. elegans strains were cultured and maintained according to standard procedures (Brenner, 1974; Hodgkin, 1988). All strains were assayed at 20° C. unless otherwise indicated. compound was mixed with killed bacteria slurry (strain OP50, taken through multiple freeze-thaw cycles) to 2× desired final concentration. Adult wildtype (Bristol N2) or mutant hermaphrodites were collected in M9. Worms were mixed 1:1 with compound/bacteria mixture, and plated on peptone-free NGM plates. Plates were allowed to dry, and then placed at 20° C. until assayed. For egg-laying assays, adults were treated overnight with compound. Approximately thirty animals were loaded onto agar pads made on glass slides and examined under Nomarski optics. Animals were scored as egg-laying defective if they contained>comma stage embryos.

“Also recorded” adds a separate entry of the source.

For orientation: inhibition means the drop in the measured response relative to a control, in per cent.

Regarding `O=c1[nH]c(-c2ccc(C(F)(F)F)cc2)nn1-c1cc(Cl)ccc1O` [Compound I], the “Relaxation of bladder smooth muscle strips contracted with carbachol” value in assay [1] is on record as “capable of relaxing strips of bladder smooth muscle”. The inhibition at 10 µM in assay [1] (Rattus norvegicus, 10 μM compound, 1 h incubation, 10 μM carbachol, read-out: Inhibition of the carbachol response) lay within 40 to 60%. Also, in assay [2], the “Carbachol induced calcium influxes” value is recorded as “blocked”; the “Combined effect with pertussis toxin on carbachol calcium signal” value is on record as “cumulative”; the “Effect on function of human RGS and Gq signaling proteins via Ca++ signaling” value is “clearly able to effect the function of Gq and RGS”. In addition, the “Gq versus Go/Gi specificity of calcium signal inhibition” value in assay [2] (carbachol) is “specifically inhibiting Gq signaling and not Go/Gi”. In addition, the “Affinity of RGS7 and Gq (Gq co-precipitated with myc-RGS-7)” value (shortened to “Affinity of RGS7 and Gq”) in assay [3] is recorded as “increase the affinity of RGS7 with Gq; also recorded: clearly increase the affinity of Gq for RGS”. For the same compound, the “Neuromuscular defects (pharyngeal pumping, body movement, egg-laying)” value in assay [4] is reported as “causes neuromuscular defects”.

Alf4- [reference compound]: the “Affinity of RGS7 and Gq” value in assay [3] is “increases its affinity with RGS”.

As for `O=c1[nH]c(-c2ccc(Br)s2)nn1-c1cc(Cl)c(Br)cc1O` [Compound II, 2-(4-bromo-5-chloro-2-hydroxyphenyl)-2,4-dihydro-5-(5-bromothien-2-yl)-3H-1,2,4-triazol-3-one], in assay [1] (Rattus norvegicus, 3 μM compound, 1 h incubation, 10 μM carbachol, read-out: Inhibition of the carbachol response), the inhibition at 3 µM fell in the range of 20 to 40%. In addition, the “Carbachol induced calcium influxes” value in assay [2] is recorded as “blocked”. In addition, in assay [3], the “Affinity of RGS7 and Gq” value was “clearly increase the affinity of Gq for RGS”.

Source of the values: patent publication US7846671B2, “Methods of screening for agents that modulate the interaction of RGS and Gαq and urinary incontinence” (Bristol-Myers Squibb Company, priority 2002, dated 2010).
